Data as given in patent EP0565593B1, “REDUCING PESTICIDAL INTERACTIONS IN CROPS” (priority 1990, dated 1992).

Assays:
Corn [1] = test: Greenhouse test Procedure II: herbicide, insecticide and antidote incorporated in cover layer (Example 4; Table 4); assay type: in vivo; conditions: 3 weeks
Description: (§1) Containers were filled and compacted with a fumigated silt loam top soil to a depth of about 1.3 cm from the top of the container. A first container was designated as an untreated control, a second container was designated as a herbicide control, and a third container was designated as a herbicide + antidote test container. Each of the containers was seeded with a crop species. A measured amount of herbicide dispersed or dissolved in acetone was applied to a measured quantity of soil. To this same quantity of soil treated with herbicide, there was added a measured amount of antidote dispersed or dissolved in acetone. The quantity of soil treated with the herbicide and antidote was thoroughly mixed to incorporate the herbicide and antidote in the soil uniformly. The seed bed in the third container of soil was covered with the soil treated with the herbicide and antidote and the container was leveled. For each test series, the seed beds of the first and second containers were likewise covered by soil layers. the cover layer of the first container was not treated with herbicide or antidote.
(§2) This procedure is the same as Procedure I, but modified in the manner that after incorporation of the chemicals (herbicide, antidote and insecticide), the containers with the covered seedbed were treated with an initial overhead irrigation equivalent to 0.6 cm rainfall, then subsequently sub-irrigated as required on greenhouse benches.
(§3) The procedure used in this test was Procedure No. 2 above. Formulations of herbicide, insecticide and antidote were applied via track sprayer sequentially onto cover layers, incorporated into the soil which was spread over seedbeds, then irrigated from above with 0.6 cm water. Observations were made three (3) weeks after treatment.

Corn [2] = test: Greenhouse test Procedure I with PPI or POE herbicide and foliar insecticide (Example 5; Table 5); assay type: in vivo
Description: as §1
(§4) Insecticide application was made as described in the tests in the examples below. The containers were then placed on a bench in a greenhouse and sub-irrigated as required for the duration of the test.
(§5) Said herbicide and antidote were sequentially pipetted onto cover layers, which were spread over the seed beds and subirrigated as in Procedure I and allowed to grow to a height of about 10 cm over a period of 11 days. Herbicide No. 1 and Insecticide No. 2 were then sequentially sprayed on the plant foliage. Observations were made three (3) weeks after initial treatment, 10 days after foliar treatment).

Corn [3] = test: Greenhouse test, combination of Procedures II and III: insecticide in-furrow or in cover layer, herbicide and antidote incorporated in cover layer (Examples 1-3, 6; Tables 1-3, 6); assay type: in vivo; conditions: for % Injury Corn / % Corn Injury PN 3320 / % Corn Injury PN 3377: 3 weeks; for Percent Injury Corn: 7 weeks
VELE (velvetleaf) [4] = test: Greenhouse test Procedure II (Example 4; Table 4); assay type: in vivo, Abutilon theophrasti; conditions: 3 weeks
Description: as §1, §2, §3

Corn [5] = test: Field trials, PPI, PRE and POE herbicide applications with terbufos (Example 7); assay type: in vivo; conditions: mean of five locations, soil-applied insecticide prior to planting
From the text: This example summarizes the results of one series of field trials from a plurality of locations and soil types wherein test chemicals were applied in various modes including pre-plant incorporated (PPI), post emergence (POE) and preemergence (PRE) with and without a safener (antidote). Test Chemicals were Herbicide Nos 1, 2, 3 and 7-9; Insecticide No. 1 and Antidote No. 1.
In these trials Insecticide No. 1 (terbufos) was T-banded or furrow applied at labeled rates prior to planting corn. PPI herbicide treatments were applied prior to insecticide applications; PRE treatments were applied after the insecticide application either prior to or after seeding the corn. POE herbicide applications were made at 2 corn-growth stages, i.e., early post (EP) at the 2-3 leaf stage and late post (LP) at the 4-7 leaf stage. Plots were small plot with 3 replications in a randomized complete block design. In the PRE and PPI herbicide treatments, Antidote No. 1 was applied as a tankmix in both treatments. In the POE herbicide treatments, that antidote was applied as a tank mix with the herbicide at the EP and LP stages.

VELE (velvetleaf) [6] = test: Greenhouse test Procedure I with PPI or POE herbicide and foliar insecticide (Example 5; Table 5); assay type: in vivo, Abutilon theophrasti
Description: as §1, §4, §5

[7] = Insecticide 2 3.36 + Herbicide 1 0.07 kg/Ha
[8] = Insecticide 2 3.36 + Herbicide 1 0.14 kg/Ha
[9] = Herbicide 1 0.07 Kg/Ha POE, 10 days after foliar treatment
[10] = Herbicide 1 0.14 Kg/Ha PPI, 3 weeks
[11] = Herbicide 1 0.28 Kg/Ha POE, 10 days after foliar treatment
[12] = Herbicide 1 0.56 Kg/Ha PPI, 3 weeks
[13] = Herbicide 1 1.12 Kg/Ha POE, 10 days after foliar treatment
[14] = Herbicide 1 2.24 Kg/Ha PPI, 3 weeks
[15] = Insecticide 2 1.68 (foliar) + Herbicide 1 0.14 Kg/Ha PPI, 3 weeks
[16] = Insecticide 2 1.68 (foliar) + Herbicide 1 0.56 Kg/Ha PPI, 3 weeks
[17] = Insecticide 2 1.68 (foliar) + Herbicide 1 2.24 Kg/Ha PPI, 3 weeks
[18] = Insecticide 2 1.68 + Herbicide 1 0.07 Kg/Ha POE, 10 days after foliar treatment
[19] = Insecticide 2 1.68 + Herbicide 1 0.28 Kg/Ha POE, 10 days after foliar treatment
[20] = Ex. 6: Insecticide 1 0.23 Kg/305m + Herbicide 1 0.14 Kg/Ha
[21] = Ex. 6: Insecticide 1 0.23 Kg/305m + Herbicide 1 0.56 Kg/Ha
[22] = Ex. 6: Insecticide 2 0.23 Kg/305m + Herbicide 1 0.14 Kg/Ha
[23] = Ex. 6: Insecticide 2 0.23 Kg/305m + Herbicide 1 0.56 Kg/Ha

COC(=O)c1c(Cl)nn(C)c1S(=O)(=O)NC(=O)Nc1nc(OC)cc(OC)n1 [Herbicide No. 1, N-[(4,6-dimethoxypyrimidin-2-yl)aminocarbonyl]-3-chloro-4-methoxycarbonyl-5-sulfonamide, reference compound]
% Injury Corn (Corn [1]; Herbicide 1 0.07 kg/Ha): 2% | % Injury Corn (Corn [1]; Herbicide 1 0.14 kg/Ha): 13% | % Injury Corn (Corn [1]; [7]): 0% | % Injury Corn (Corn [1]; [8]): 38% | % Injury Corn (Corn [2]; [9]): 0% | % Injury Corn (Corn [2]; [10]): 5% | % Injury Corn (Corn [2]; [11]): 15% | % Injury Corn (Corn [2]; [12]): 28% | % Injury Corn (Corn [2]; [13]): 7% | % Injury Corn (Corn [2]; [14]): 58% | % Injury Corn (Corn [2]; [15]): 18% | % Injury Corn (Corn [2]; [16]): 10% | % Injury Corn (Corn [2]; [17]): 87% | % Injury Corn (Corn [2]; [18]): 10% | % Injury Corn (Corn [2]; [19]): 10% | % Injury Corn (Corn [3]; Ex. 2: Herbicide 1 0.14 Kg/Ha): 4% | % Injury Corn (Corn [3]; Ex. 2: Herbicide 1 0.56 Kg/Ha): 58% | injury to corn (Corn [3]; Ex. 2: Herbicide No. 1 0.14 kg/ha + Insecticide No. 2, no antidote): 65% | % Injury Corn (Corn [3]; Ex. 2: Insecticide 1 0.11 kg/305m + Herbicide 1 0.14 Kg/Ha): 83% | % Injury Corn (Corn [3]; Ex. 2: Insecticide 1 0.11 kg/305m + Herbicide 1 0.56 Kg/Ha): 93% | % Injury Corn (Corn [3]; Ex. 2: Insecticide 1 0.23 Kg/305m + Herbicide 1 0.14 + Herbicide 2 4.48 Kg/Ha): 90% | % Injury Corn (Corn [3]; Ex. 2: Insecticide 1 0.23 Kg/305m + Herbicide 1 0.14 Kg/Ha): 83% | % Injury Corn (Corn [3]; Ex. 2: Insecticide 1 0.23 Kg/305m + Herbicide 1 0.56 Kg/Ha): 96% | % Injury Corn (Corn [3]; Ex. 2: Insecticide 2 3.36 Kg/Ha + Herbicide 1 0.14 + Herbicide 2 4.48 Kg/Ha): 83% | % Injury Corn (Corn [3]; Ex. 3: Herbicide 1 0.14 Kg/Ha): 10% | % Injury Corn (Corn [3]; Ex. 3: Herbicide 1 0.56 Kg/Ha): 63% | % Injury Corn (Corn [3]; Ex. 3: Insecticide 3 (227 g) + Herbicide 1 0.14 + Herbicide 2 4.48 Kg/Ha): 73% | % Injury Corn (Corn [3]; Ex. 3: Insecticide 3 (227g) + Herbicide 1 0.14 Kg/Ha): 45% | % Injury Corn (Corn [3]; Ex. 3: Insecticide 3 (227g) + Herbicide 1 0.56 Kg/Ha): 93% | % Injury Corn (Corn [3]; Ex. 3: Insecticide 4 (227g) + Herbicide 1 0.14 + Herbicide 2 4.48 Kg/Ha): 88% | % Injury Corn (Corn [3]; Ex. 3: Insecticide 4 (227g) + Herbicide 1 0.14 Kg/Ha): 55% | % Injury Corn (Corn [3]; Ex. 3: Insecticide 4 (227g) + Herbicide 1 0.56 Kg/Ha): 45% | % Corn Injury PN 3320 (Corn [3]; Ex. 6: Herbicide 1 0.14 Kg/Ha): 85% | % Corn Injury PN 3377 (Corn [3]; Ex. 6: Herbicide 1 0.14 Kg/Ha): 12% | % Corn Injury PN 3320 (Corn [3]; Ex. 6: Herbicide 1 0.56 Kg/Ha): 88% | % Corn Injury PN 3377 (Corn [3]; Ex. 6: Herbicide 1 0.56 Kg/Ha): 23% | % Corn Injury PN 3320 (Corn [3]; [20]): 95% | % Corn Injury PN 3377 (Corn [3]; [20]): 78% | % Corn Injury PN 3320 (Corn [3]; [21]): 95% | % Corn Injury PN 3377 (Corn [3]; [21]): 90% | % Corn Injury PN 3320 (Corn [3]; [22]): 85% | % Corn Injury PN 3377 (Corn [3]; [22]): 48% | % Corn Injury PN 3320 (Corn [3]; [23]): 88% | % Corn Injury PN 3377 (Corn [3]; [23]): 90% | Percent Injury Corn (Corn [3]; Herbicide 1 0.14 Kg/Ha): 18% | Percent Injury Corn (Corn [3]; Herbicide 1 0.56 Kg/Ha): 58% | Percent Injury Corn (Corn [3]; Herbicide 1 2.24 Kg/Ha): 85% | Percent Injury Corn (Corn [3]; Insecticide 1 0.23 kg/305m + Herbicide 1 0.14 Kg/Ha): 85% | Percent Injury Corn (Corn [3]; Insecticide 1 0.23 kg/305m + Herbicide 1 0.56 Kg/Ha): 97% | Percent Injury Corn (Corn [3]; Insecticide 1 0.23 kg/305m + Herbicide 1 2.24 Kg/Ha): 95% | Percent Injury Corn (Corn [3]; Insecticide 2 3.36 kg/ha + Herbicide 1 0.14 Kg/Ha): 60% | Percent Injury Corn (Corn [3]; Insecticide 2 3.36 kg/ha + Herbicide 1 0.56 Kg/Ha): 90% | Percent Injury Corn (Corn [3]; Insecticide 2 3.36 kg/ha + Herbicide 1 2.24 Kg/Ha): 95% | % Injury VELE (VELE (velvetleaf) [4]; Herbicide 1 0.07 kg/Ha): 20% | % Injury VELE (VELE (velvetleaf) [4]; Herbicide 1 0.14 kg/Ha): 67% | % Injury VELE (VELE (velvetleaf) [4]; [7]): 10% | % Injury VELE (VELE (velvetleaf) [4]; [8]): 20% | interaction with Insecticide No. 1 after POE herbicide (Corn [5]): insignificant interaction | % Injury VELE (VELE (velvetleaf) [6]; [9]): 30% | % Injury VELE (VELE (velvetleaf) [6]; [10]): 78% | % Injury VELE (VELE (velvetleaf) [6]; [11]): 30% | % Injury VELE (VELE (velvetleaf) [6]; [12]): 93% | % Injury VELE (VELE (velvetleaf) [6]; [13]): 20% | % Injury VELE (VELE (velvetleaf) [6]; [14]): 95% | % Injury VELE (VELE (velvetleaf) [6]; [15]): 90% | % Injury VELE (VELE (velvetleaf) [6]; [16]): 90% | % Injury VELE (VELE (velvetleaf) [6]; [17]): 98% | % Injury VELE (VELE (velvetleaf) [6]; [18]): 23% | % Injury VELE (VELE (velvetleaf) [6]; [19]): 42%
